The text below walks through data of ChEMBL document CHEMBL3621162, “Virtual Screening and Biological Validation of Novel Influenza Virus PA Endonuclease Inhibitors” (ACS Med Chem Lett, 2015).

pEC50, pIC50: −log10 of the molar value. A value given as a limit tells only on which side of the number the result lay.

In series [1] the target is Polymerase acidic protein (Influenza A virus (strain A/X-31 H3N2), UniProt Q9IQ47). In words: Inhibition of recombinant Influenza virus A/X-31 N-terminal RdRp PA subunit (1 to 217) expressed in Escherichia coli using single-stranded circular DNA plasmid M13mp18 as substrate after 2 hrs by agarose gel electrophoresis. Details: species or system Influenza A virus (A/X-31(H3N2)).

Series [2] relates to Influenza A virus. The experiment in a line: Antiviral activity against Influenza A virus (A/PR/8/1934(H1N1)) infected in MDCK cells assessed as 2-log10 reduction in viral RNA copy number after 24 hrs by quantitative RT-PCR analysis. The series is classed as functional. The note with it: A/Puerto Rico/8/1934(H1N1).
For series [3], the system named is Influenza A virus. The experiment in a line: Antiviral activity against Influenza A virus (A/PR/8/1934(H1N1)) infected in MDCK cells assessed as 1-log10 reduction in viral RNA copy number after 24 hrs by quantitative RT-PCR analysis. In kind it is functional, organism-based. The note with it: A/Puerto Rico/8/1934(H1N1).
The nature of series [4]: Cytotoxicity against MDCK cells assessed as cell viability measured at 24 hrs by MTS assay. In kind it is cell-based, Canis lupus familiaris. The note with it: dog. A general note: Tetrazolium dyes change colour on reduction, which living cells bring about.
Series [5] has as its system Influenza A virus. The experiment in a line: Potency index, ratio of ribavirin EC90 to compound EC90 for Influenza A virus (A/PR/8/1934(H1N1)) infected in MDCK cells. In kind it is functional, A/Puerto Rico/8/1934(H1N1).
The nature of series [6]: Cytotoxicity against HEK293T cells assessed as cell viability measured at 24 hrs by MTS assay. In kind it is cell-based, HEK-293T. The settings on record: human.
In series [7] the test system is Influenza A virus. The experiment in a line: Potency index, ratio of ribavirin EC99 to compound EC99 for Influenza A virus (A/PR/8/1934(H1N1)) infected in MDCK cells. In kind it is functional, A/Puerto Rico/8/1934(H1N1).
Series [8] concerns Influenza A virus. The experiment in a line: Antiviral activity against Influenza A virus (A/PR/8/1934(H1N1)) infected in HEK293T cells assessed as reduction in viral RNP reconstitution measured at 24 hrs by luciferase reporter gene assay. In kind it is functional, organism-based. The settings on record: A/Puerto Rico/8/1934(H1N1), HEK-293T. (In general: Reporter assays use an easily measured gene product as a stand-in for the process of interest.)

The term pIC50 denotes the negative decadic logarithm of the IC50, by convention in mol/L. With `O=C(O)CC1C(=O)NCCN1CCCc1ccccc1` (configuration not stated), the pIC50 in series [1] is less than 3.30.

In general, EC99 refers to the point of the concentration-response curve where the effect stands at 99%. As a reminder, the pEC50 is the EC50 on a negative log10 scale, so that one unit is a factor of ten. The term CC50 denotes the concentration at which the toxic effect on the cells reaches its halfway point. With `O=C(NCCc1ccc(O)c(O)c1)c1cc2cc(O)c(O)cc2[nH]1`, the 99% effect concentration (EC99) in series [2] stood at 5.7 µM. The pEC50 in series [3] was 5.49; in series [8], 4.80. In addition, the CC50 at 24 h in series [4] was no less than 50 µM; in series [6], 110 µM. Also, the Ratio in series [5] and in series [7] was 2 in each case. Also, in series [1], the pIC50 is 6.03.

Take `O=C(O)C1C(C(=O)O)C(C(=O)O)C(C(=O)O)C(C(=O)O)C1C(=O)O` (configuration not stated): the pIC50 in series [1] was less than 3.30.

`Cc1nc(SCc2ccccc2)nc(O)c1CC(=O)O`: the pIC50 in series [1] was less than 3.30.

`CNC(=O)c1cccc(Nc2nc(O)nc(O)c2C#N)c1`: the pIC50 in series [1] is less than 3.30.

Consider `O=C(O)c1nccnc1C(=O)Nc1nc(-c2cccs2)n[nH]1`, for which the negative logarithm of the IC50 (pIC50) in series [1] was less than 3.30.

Consider `Cc1cc(NC(=O)c2c(O)nc(O)[nH]c2=O)no1`, for which the pIC50 in series [1] is less than 3.30.

With `O=C(O)CCc1nn2c(nc1O)nc1ccccc12`, the pIC50 in series [1] was less than 3.30.

On to `O=C(O)CCc1nnc(SCc2ccc(Cl)cc2)nc1O`, for which, in series [1], the negative logarithm of the IC50 (pIC50) was less than 3.30.

For the compound `COc1cc2nc(N3CCOCC3)nc(N)c2cc1OC`, the pIC50 in series [1] was less than 3.30.

`O=C(NCCCNC(=O)c1cc2cc(O)c(O)cc2[nH]1)c1cc2ccccc2[nH]1`: the EC99 in series [2] came to 73 µM. For the same compound, the negative logarithm of the EC50 (pEC50) is 4.49 in series [3] and 4.19 in series [8]. The CC50 at 24 h in series [4] and in series [6] was greater than 200 µM throughout. For the same compound, the pIC50 in series [1] was 4.19.

Take `O=C(CC(=O)Nc1ccccc1)NNc1ccc([N+](=O)[O-])cc1`: in series [1], the pIC50 was less than 3.30.

Consider `Cc1cc(=O)oc2n[nH]c(C)c12`, for which the pIC50 in series [1] is less than 3.30.

Take `O=C(NCCCCNC(=O)c1cc2cc(O)c(O)cc2[nH]1)c1cc2cc(O)c(O)cc2[nH]1`: in series [2], the EC99 was determined as 12 µM. Also, the pEC50 is 5.20 in series [3] and 4.62 in series [8]. The CC50 at 24 h in series [4] and in series [6] was greater than 200 µM in each case. For the same compound, in series [1], the pIC50 was 5.15.

With `CCOC(=O)c1c(O)c2cc(OC)ccc2n(C)c1=O`, the pIC50 in series [1] is less than 3.30.

As to `O=C(O)/C(O)=C/C(=O)C1(Cc2ccc(Cl)cc2)CCN(Cc2ccccc2)CC1`, in series [2], the EC99 was found to be 8.4 µM. Further, the negative-log EC50 (pEC50) in series [3] is 5.27; in series [8], 5.47. Further, the 50% cytotoxic concentration (CC50) at 24 h is 181 µM in series [4] and greater than 100 µM in series [6]. For the same compound, the pIC50 in series [1] is 6.32.

As to `NC(=O)c1ncn([C@@H]2O[C@H](CO)[C@@H](O)[C@H]2O)n1` [RIBAVIRIN], the EC99 in series [2] turned out to be 11 µM. Further, the CC50 at 24 h in series [4] and in series [6] was greater than 200 µM in each case. For the same compound, the pEC50 in series [8] is 5.08.
